Experimental data published in publication PMC10974284, “Discovery of Novel 4-Hydroxyquinazoline Derivatives: In Silico, In Vivo and In Vitro Studies Using Primary PARPi-Resistant Cell Lines” (Molecules, 2024).
Read-outs that look alike come from different tables or passages of the source.

Legend:
HCT-15 cell lines [1] = experiment: MTT cytotoxicity assay, HCT-15; format: cell-based, human; conditions: Homo sapiens
Protocol: (§1) After treatment with target compounds at the different concentrations, MTT was added and the cells were incubated for another 4 h. The IC50 values of the selected compounds were evaluated by the same method. The cells were treated with compounds at different concentrations. The OD values were detected using a microplate reader at 570 nm.

HCC1937 cell lines [2] = experiment: MTT cytotoxicity assay, HCC1937; format: cell-based, human; conditions: Homo sapiens
Protocol: as §1

MDA-MB-231 = experiment: MTT cytotoxicity assay, MDA-MB-231; format: cell-based; conditions: Homo sapiens
Protocol: as §1

LO2 = experiment: MTT cytotoxicity assay, LO2 normal hepatocytes; format: cell-based; conditions: L02, 72 h; 3 days, human normal hepatocytes
Protocol: as §1

NCM460 = experiment: MTT cytotoxicity assay, NCM460 normal colonic epithelial cells; format: cell-based; conditions: NCM460, 72 h; 3 days, human normal colonic epithelial cells
Protocol: as §1

HCT-15 cell lines [3] = experiment: Cell apoptosis assay (Annexin V-FITC/PI flow cytometry), HCT-15; format: cell-based, human; conditions: HCT-15, 20 μM, 48 h
Protocol: (§2) The cells were seeded in 6-well plates with 1 × 10^5 cells per well and incubated for 24 h. […] The cells were digested, collected, and resuspended in the binding buffer. After adding 5 μL of Annexin V-FITC and 10 μL of propidium iodide (PI), the cells were incubated for 30 min away from light; this was followed by detection using flow cytometry (Beckman Coulter).

HCC1937 cell lines [4] = experiment: Cell apoptosis assay (Annexin V-FITC/PI flow cytometry), HCC1937; format: cell-based, human; conditions: HCC1937, 20 μM, 48 h
Protocol: as §2

[5] = test system: PAR formation in HCT-15 cell lines; experiment: Immunofluorescence analysis of PAR, H2O2-treated HCT-15; format: cell-based, human
Protocol: (§3) The cells were seeded in 6-well plates with 1 × 10^5 cells per well and incubated for 24 h. […] Cells were fixed with addition of 4% paraformaldehyde, and immunostaining blocking solution was added at room temperature for 20 min. […] Then, a […] staining solution (DAPI) was added for staining, the […] staining solution was aspirated, and the well washed 3 times with washing solution. Photographs were taken through a Leica SP8 Laser confocal microscope.

[6] = test system: PAR formation in HCC1937 cell lines; experiment: Immunofluorescence analysis of PAR, H2O2-treated HCC1937; format: cell-based, human
Protocol: as §3

[7] = test system: γH2AX in HCT-15 cell lines; experiment: Immunofluorescence analysis of γH2AX, HCT-15; format: cell-based, human; conditions: HCT-15, 10 μM
Protocol: as §3

[8] = test system: γH2AX in HCC1937 cell lines; experiment: Immunofluorescence analysis of γH2AX, HCC1937; format: cell-based, human; conditions: HCC1937, 10 μM
Protocol: as §3

[9] = test system: Caspase-3, cleaved Caspase-3, Bax, Bcl-2 in HCT-15 cell lines; experiment: Western blot of apoptosis-related proteins, HCT-15; format: cell-based, human; conditions: HCT-15, 1.25-20 μM, 48 h
Protocol: (§4) Subsequently, the cells were lysed with RIPA lysis buffer and protein samples were prepared. Denatured proteins were separated by 10% SDS-PAGE electrophoresis and transferred to a PVDF membrane. The membrane was blocked with 5% blocking solution for 2 h. The membrane was incubated overnight at 4 °C with specific primary antibody. Then, the membrane was rinsed three times with TBST, secondary antibody was added, and the membrane was incubated at room temperature for 2 h. Finally, the target protein was detected by the ECL detection system. The relative expression was quantified using Image J (National Institutes of Health).

[10] = test system: Caspase-3, cleaved Caspase-3, Bax, Bcl-2 in HCC1937 cell lines; experiment: Western blot of apoptosis-related proteins, HCC1937; format: cell-based, human; conditions: HCC1937, 1.25-20 μM, 48 h
Protocol: as §4

HCT-15 cell lines [11] = experiment: Mitochondrial membrane potential assay (JC-1), HCT-15; format: cell-based, human
From the text: (§5) Cell culture methods were the same as for the cell apoptosis assay.
(§6) The experimental operation was the same as ROS, only replacing the DCFH-DA probe with the JC-1 probe.

HCC1937 cell lines [12] = experiment: Mitochondrial membrane potential assay (JC-1), HCC1937; format: cell-based, human
From the text: as §5, §6

[13] = test system: HCT-15 nude mouse xenograft model; experiment: In vivo anti-tumor study
Protocol: The tumor volume and mouse body weight were recorded, and the corresponding tissues were analyzed.
All experimental procedures were performed according to the National Institutes of Health guidelines for the use of laboratory animals, and an application was made to the Institutional Animal Care and Use Committee, Shandong Second Medical University, which was approved. […] When the tumor volume reached about 80–150 mm^3, the mice were randomly divided into three groups (the control group, and different concentration administration group) and administered for 14 consecutive days, while the tumor volume was measured once every two days and the body weight of the mice was recorded. At the end stage, mice were killed by neck-breaking and tumor tissues were removed. All the photographs were taken through a Leica SP8 Laser confocal microscope.

[14] = Acute toxicity study in mice; format: in vivo, mouse; conditions: single intraperitoneal injection 800 mg/kg, monitored 14 days
Protocol: The mice were administered a single intraperitoneal injection dose of 800 mg/kg and were constantly monitored for 14 days.

PARP1 = molecular target: T1, PARP1 (Homo sapiens, UniProt P09874); experiment: PARP1 enzyme inhibition assay (commercial kit); format: biochemical
T1 construct: purchased Sigma-Aldrich 17-10149
T1 sequence (P09874 whole entry): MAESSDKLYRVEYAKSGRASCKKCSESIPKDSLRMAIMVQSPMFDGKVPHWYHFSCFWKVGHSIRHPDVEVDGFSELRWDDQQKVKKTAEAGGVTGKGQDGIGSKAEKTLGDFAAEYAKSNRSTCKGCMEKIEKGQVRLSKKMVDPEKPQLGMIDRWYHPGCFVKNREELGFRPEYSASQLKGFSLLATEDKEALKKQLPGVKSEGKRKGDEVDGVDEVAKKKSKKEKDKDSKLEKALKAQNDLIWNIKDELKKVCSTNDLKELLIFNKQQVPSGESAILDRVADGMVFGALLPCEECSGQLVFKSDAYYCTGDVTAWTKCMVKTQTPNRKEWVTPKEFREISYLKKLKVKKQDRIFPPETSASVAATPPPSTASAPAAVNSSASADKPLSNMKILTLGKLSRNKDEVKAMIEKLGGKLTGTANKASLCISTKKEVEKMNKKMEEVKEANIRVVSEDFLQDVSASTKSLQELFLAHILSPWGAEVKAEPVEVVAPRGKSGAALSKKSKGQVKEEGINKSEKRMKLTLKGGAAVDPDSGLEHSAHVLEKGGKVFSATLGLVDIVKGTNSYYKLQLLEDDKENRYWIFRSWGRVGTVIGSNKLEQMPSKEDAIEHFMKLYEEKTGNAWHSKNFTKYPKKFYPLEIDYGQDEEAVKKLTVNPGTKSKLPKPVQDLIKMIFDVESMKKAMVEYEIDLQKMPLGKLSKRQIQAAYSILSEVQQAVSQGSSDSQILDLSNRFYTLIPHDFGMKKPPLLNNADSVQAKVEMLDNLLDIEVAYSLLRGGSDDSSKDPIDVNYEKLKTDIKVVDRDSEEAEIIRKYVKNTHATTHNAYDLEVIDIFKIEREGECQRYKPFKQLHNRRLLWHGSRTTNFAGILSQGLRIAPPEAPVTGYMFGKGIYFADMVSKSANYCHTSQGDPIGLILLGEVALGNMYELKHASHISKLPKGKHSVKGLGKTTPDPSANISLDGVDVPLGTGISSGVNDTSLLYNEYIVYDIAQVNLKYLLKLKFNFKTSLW

[15] = HCT-15, 72 h (3-Days) drug exposure, MTT, read-out: IC50 HCT-15
[16] = HCC1937, 72 h (3-Days) drug exposure, MTT, read-out: IC50 HCC1937
[17] = HCT-15, 72 h, read-out: IC50 HCT-15
[18] = HCC1937, 72 h, read-out: IC50 HCC1937

Cc1ccc(Cl)cc1NC(=O)N1C2CC1CN(Cc1nc3ccccc3c(=O)[nH]1)C2 [B1, N-(5-chloro-2-methylphenyl)-3-((4-oxo-3,4-dihydroquinazolin-2-yl)methyl)-3,6-diazabicyclo[3.1.1]heptane-6-carboxamide]
IC50 (HCT-15 cell lines [1]; [15]): 2.89 ± 0.78 µM
IC50 (HCT-15 cell lines [1]; HCT-15, 7 days drug treatment, read-out: IC50 HCT-15 7-Days): 0.13 ± 0.03 µM
IC50 (HCC1937 cell lines [2]; [16]): 3.26 ± 0.38 µM
IC50 (HCC1937 cell lines [2]; HCC1937, 7 days drug treatment, read-out: IC50 HCC1937 7-Days): 0.17 ± 0.04 µM
IC50 (MDA-MB-231; MDA-MB-231, 72 h, 3 days, read-out: IC50 MDA-MB-231 3-Days): 11.3 ± 1.93 µM
IC50 (MDA-MB-231; MDA-MB-231, 7 days, read-out: IC50 MDA-MB-231 7-Days): 1.33 ± 0.51 µM
IC50 (LO2): > 100 µM
IC50 (NCM460): > 100 µM
apoptosis rate (HCT-15 cell lines [3]): 73.58%
apoptosis rate (HCC1937 cell lines [4]): 53.14%
PAR aggregation (green fluorescence) ([5]; H2O2-treated HCT-15, 1.25 μM): green fluorescence obviously weakened
PAR aggregation (green fluorescence) ([5]; H2O2-treated HCT-15, 5 μM): green fluorescence almost disappeared
PAR aggregation (green fluorescence) ([6]; H2O2-treated HCC1937, 1.25 μM): green fluorescence obviously weakened
PAR aggregation (green fluorescence) ([6]; H2O2-treated HCC1937, 5 μM): green fluorescence almost disappeared
expression of γH2AX [7]: significantly increased
expression of γH2AX [8]: significantly increased
Bax expression [9]: considerably increased Bax expression
Bcl-2 expression [9]: decreased Bcl-2 expression
Caspase-3 activation [9]: activated Caspase-3
Bax expression [10]: considerably increased Bax expression
Bcl-2 expression [10]: decreased Bcl-2 expression
Caspase-3 activation [10]: activated Caspase-3
mitochondrial membrane potential (JC-1 fluorescence) (HCT-15 cell lines [11]; HCT-15, 5 μM): green fluorescence began to change significantly
mitochondrial membrane potential (JC-1 fluorescence) (HCT-15 cell lines [11]; HCT-15, 20 μM): the intensity of red fluorescence was hardly visible
mitochondrial membrane potential (JC-1 fluorescence) (HCC1937 cell lines [12]; HCC1937, 5 μM): green fluorescence began to change significantly
mitochondrial membrane potential (JC-1 fluorescence) (HCC1937 cell lines [12]; HCC1937, 20 μM): the intensity of red fluorescence was hardly visible
tumor cell morphology (H&E) ([13]; 10 mg/kg intraperitoneally once daily for 14 days): irregular morphological alterations and severe vacuolization
xenograft tumor growth (tumor volume and weight) ([13]; 25 mg/kg intraperitoneally once daily for 14 days): significantly inhibited xenograft tumor growth
xenograft tumor growth (tumor volume and weight) ([13]; 50 mg/kg intraperitoneally once daily for 14 days): significantly inhibited xenograft tumor growth
body weight, acute toxicity [14]: no significant reduction in body weight
major organs (H&E), acute toxicity [14]: no significant changes in heart, liver, spleen, lung, or kidney

O=C(Nc1ccc(F)cc1F)N1CCN(Cc2nc3ccccc3c(=O)[nH]2)CC1 [IN17]
inhibition at 50 µM (HCT-15 cell lines [1]; HCT-15, 50 μM, 72 h, MTT, read-out: Inhibition rate (%) HCT-15): 63.3%
IC50 (HCT-15 cell lines [1]; [15]): 33.5 ± 1.79 µM
inhibition at 50 µM (HCC1937 cell lines [2]; HCC1937, 50 μM, 72 h, MTT, read-out: Inhibition rate (%) HCC1937): 60.6%
IC50 (HCC1937 cell lines [2]; [16]): 34.3 ± 2.68 µM
IC50 (PARP1): 471.2 ± 3.18 nM
inhibition at 0.5 µM (PARP1; 0.5 μM, read-out: Inhibition rate (%) PARP1): 53.1%
IC50 (PARP1; as printed in the text): 470 ± 3.2 nM

Cc1ccc(F)cc1NC(=O)N1CCN(Cc2nc3ccccc3c(=O)[nH]2)CC1 [A30, N-(5-fluoro-2-methylphenyl)-4-((4-oxo-3,4-dihydroquinazolin-2-yl)methyl)piperazine-1-carboxamide]
IC50 (HCT-15 cell lines [1]; [15]): 18.3 ± 0.44 µM
IC50 (HCC1937 cell lines [2]; [16]): 39.5 ± 1.84 µM
melting point: 201.1 to 202.8 °C

COc1ccc(NC(=O)N2CCN(Cc3nc4ccccc4c(=O)[nH]3)CC2)cc1 [A18, N-(4-methoxyphenyl)-4-((4-oxo-3,4-dihydroquinazolin-2-yl)methyl)piperazine-1-carboxamide]
IC50 (HCT-15 cell lines [1]; [15]): > 50 µM
IC50 (HCC1937 cell lines [2]; [16]): > 50 µM
melting point: 184.9 to 186.9 °C

O=C(Nc1ccc(Br)cc1)N1CCN(Cc2nc3ccccc3c(=O)[nH]2)CC1 [A9, N-(4-bromophenyl)-4-((4-oxo-3,4-dihydroquinazolin-2-yl)methyl)piperazine-1-carboxamide]
IC50 (HCT-15 cell lines [1]; [15]): > 50 µM
IC50 (HCC1937 cell lines [2]; [16]): > 50 µM
melting point: 187.8 to 188.9 °C

Cc1ccc(Cl)c(NC(=O)N2CCN(Cc3nc4ccccc4c(=O)[nH]3)CC2)c1 [A27, N-(2-chloro-5-methylphenyl)-4-((4-oxo-3,4-dihydroquinazolin-2-yl)methyl)piperazine-1-carboxamide]
IC50 (HCT-15 cell lines [1]; [15]): 25.4 ± 1.48 µM
IC50 (HCC1937 cell lines [2]; [16]): 17.5 ± 0.66 µM
melting point: 196.7 to 198.7 °C

COc1cccc(NC(=O)N2CCN(Cc3nc4ccccc4c(=O)[nH]3)CC2)c1 [A17, N-(3-methoxyphenyl)-4-((4-oxo-3,4-dihydroquinazolin-2-yl)methyl)piperazine-1-carboxamide]
IC50 (HCT-15 cell lines [1]; [15]): > 50 µM
IC50 (HCC1937 cell lines [2]; [16]): > 50 µM
melting point: 186.3 to 188.5 °C

Cc1ccc(Cl)cc1NC(=O)N1C2CC1CN(Cc1nc3ccc(F)cc3c(=O)[nH]1)C2 [C4, N-(5-chloro-2-methylphenyl)-3-((6-fluoro-4-oxo-3,4-dihydroquinazolin-2-yl)methyl)-3,6-diazabicyclo[3.1.1]heptane-6-carboxamide]
IC50 (HCT-15 cell lines [1]; [17]): 9.84 ± 0.63 µM
IC50 (HCC1937 cell lines [2]; [18]): 8.49 ± 0.71 µM
melting point: 192.1 to 193.5 °C

Cc1cccc(NC(=O)N2CCN(Cc3nc4ccccc4c(=O)[nH]3)CC2)c1F [A21, N-(2-fluoro-3-methylphenyl)-4-((4-oxo-3,4-dihydroquinazolin-2-yl)methyl)piperazine-1-carboxamide]
IC50 (HCT-15 cell lines [1]; [15]): 28.3 ± 1.55 µM
IC50 (HCC1937 cell lines [2]; [16]): > 50 µM
melting point: 200.5 to 202.1 °C

Cc1ccc(Cl)cc1NC(=O)N1CCN(Cc2nc3ccccc3c(=O)[nH]2)CC1C (centres unmarked) [B2, N-(5-chloro-2-methylphenyl)-2-methyl-4-((4-oxo-3,4-dihydroquinazolin-2-yl)methyl)piperazine-1-carboxamide]
IC50 (HCT-15 cell lines [1]; [15]): 6.37 ± 2.83 µM
IC50 (HCC1937 cell lines [2]; [16]): 5.89 ± 0.5 µM
melting point: 189.5 to 190.8 °C

Cc1ccc2c(=O)[nH]c(CN3CC4CC(C3)N4C(=O)Nc3cc(Cl)ccc3C)nc2c1 [C3, N-(5-chloro-2-methylphenyl)-3-((7-methyl-4-oxo-3,4-dihydroquinazolin-2-yl)methyl)-3,6-diazabicyclo[3.1.1]heptane-6-carboxamide]
IC50 (HCT-15 cell lines [1]; [17]): 28.4 ± 2.87 µM
IC50 (HCC1937 cell lines [2]; [18]): 30.1 ± 3.12 µM
melting point: 197.7 to 199.3 °C

Cc1ccc(Cl)cc1NC(=O)N1CCCN(Cc2nc3ccccc3c(=O)[nH]2)CC1 [B4, N-(5-chloro-2-methylphenyl)-4-((4-oxo-3,4-dihydroquinazolin-2-yl)methyl)-1,4-diazepane-1-carboxamide]
IC50 (HCT-15 cell lines [1]; [15]): 5.65 ± 1.29 µM
IC50 (HCC1937 cell lines [2]; [16]): 5.77 ± 0.99 µM
melting point: 186.6 to 187.9 °C
